The target in one assay is CK2 (Homo sapiens, UniProt P68400). The note with it: cited from earlier work.
Assay [1] deals with cholangiocarcinoma cells (胆管癌细胞). The note with it: cited from earlier work.
The subject of assay [2] is non-small cell lung cancer cells (非小细胞肺癌细胞). To be noted: cited from earlier work.
In assay [3] the test system is Cal-27 cells. Kind of assay: CX-4945-induced vacuolization, phase-contrast microscopy (Experimental Example 1, Fig. 1a). It counts as cell-based. To be noted: 20μM CX-4945, 12h.
Assay [4] relates to colorectal cancer cells (结直肠癌细胞). The note with it: cited from earlier work.
In a further assay the test system is HSC-3 cells. As to the kind of experiment: CX-4945-induced vacuolization, phase-contrast microscopy (Experimental Example 1, Fig. 1a). Type of assay: cell-based. To be noted: 40μM CX-4945, 12h.
Assay [5] has as its system Cal-27 cells. Kind of assay: Macropinocytosis marker Dextran AF488 uptake and organelle probe co-localization, confocal microscopy (Experimental Example 1, Fig. 1b-1e). Type of assay: cell-based.
The subject of another assay is UM1 cells. As to the kind of experiment: CX-4945-induced vacuolization, phase-contrast microscopy (Experimental Example 1, Fig. 1a). Type of assay: cell-based. The note with it: 40μM CX-4945, 12h.
The test system of another assay is HSC-4 cells. The description is as above. Type of assay: cell-based. To be noted: 20μM CX-4945, 12h.

Chain of CK2 (P68400 whole entry): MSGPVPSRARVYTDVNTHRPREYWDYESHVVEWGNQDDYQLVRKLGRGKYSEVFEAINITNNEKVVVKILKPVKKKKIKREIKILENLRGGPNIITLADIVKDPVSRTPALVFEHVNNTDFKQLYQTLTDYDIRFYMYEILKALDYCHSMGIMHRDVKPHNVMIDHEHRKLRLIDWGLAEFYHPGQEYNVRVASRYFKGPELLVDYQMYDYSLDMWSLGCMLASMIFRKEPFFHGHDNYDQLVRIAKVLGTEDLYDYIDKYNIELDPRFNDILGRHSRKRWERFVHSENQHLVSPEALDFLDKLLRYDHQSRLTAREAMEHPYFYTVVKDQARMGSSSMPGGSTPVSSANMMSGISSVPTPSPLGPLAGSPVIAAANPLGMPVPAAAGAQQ

Consider `O=C(O)c1ccc2c(c1)nc(Nc1cccc(Cl)c1)c1ccncc12` [CX-4945], for which the “selectivity as CK2 inhibitor” value on CK2 is on record as “高度选择性”. Also, the induction of macropinocytosis entry in [1], in [2] and in assay [4] was “可诱导巨胞饮的发生” in each case. In addition, the vacuole formation entry in the assay with Cal-27 cells [3], in the assay with HSC-3 cells, in the assay with UM1 cells and in the assay with HSC-4 cells was “均产生了空泡” in each case. For the same molecule, the “Dextran AF488 uptake in vacuoles” value with Cal-27 cells [5] (10μM CX-4945, 0.5mg/mL Dextran AF488, 12h) is reported as “大多数空泡内都摄入了大量的Dextran AF488,呈现Dextran AF488阳性”. Further, in the assay with Cal-27 cells [5] (10μM CX-4945, 0.5mg/mL Dextran AF488, ER-tracker, 12h), the “co-localization of Dextran AF488-positive vacuoles with endoplasmic reticulum” value was “不与内质网共定位”. Also, the “co-localization of Dextran AF488-positive vacuoles with lysosomes” value with Cal-27 cells [5] (10μM CX-4945, 0.5mg/mL Dextran AF488, Lyso-tracker, 12h) is given as “有一部分与溶酶体共定位”. In addition, the “co-localization of Dextran AF488-positive vacuoles with mitochondria” value in the assay with Cal-27 cells [5] (10μM CX-4945, 0.5mg/mL Dextran AF488, Mito-tracker, 12h) is given as “不与线粒体共定位”.

The values are drawn from CN115227715A, “一种用于治疗癌症的联合用药物和药物组合物” (priority 2021, dated 2022).
